Reference: patent publication US4257941A, “Polycyclic nitrogen-containing compounds” (BASF Aktiengesellschaft, priority 1976, dated 1981)
Where two headings read alike, the source gives them in different places.

Assays:
Type in all cases: in vivo
Galium aparine = test: Herbicidal action (Example 25); details: read-out: percentage damage; for pest or weed control at 2000 g/ha: 2.0 kg/ha; for pest or weed control at 4000 g/ha: 4.0 kg/ha; for pest or weed control at 8000 g/ha: 8.0 kg/ha
Method: (§1) Paraffined paper cups having a volume of 170 cm^3 were filled with a sandy loam, and the seeds of the test plants sown therein, separated by species. (The species are also listed below.)
(§2) In the first group, treatment was effected immediately after sowing and before germination of the seeds (preemergence treatment=soil treatment). Shallow sown seeds not completely covered with soil came into contact with the active ingredients. In the second group, the plants were treated postemergence (=leaf treatment) at a growth height of from 2 to 8 cm, depending on the rate of growth and shape of the species concerned. The compounds were suspended or emulsified in water and applied with the aid of fine nozzles. The soil and plants were thoroughly sprinkler irrigated for the duration of the experiment. The cups were placed in the greenhouse and kept in the temperature range 12°-25° C. or 18°-35° C., depending on the temperature requirements of the various species. After 2 to 6 weeks the action was assessed visually on a 0 to 100 scale, 0 denoting no damage and 100 denoting plants not germinated or completely destroyed.

Poa annua = test: Herbicidal action (Example 25); details: Poa annua, read-out: percentage damage; for pest or weed control at 2000 g/ha: 2.0 kg/ha; for pest or weed control at 4000 g/ha: 4.0 kg/ha; for pest or weed control at 8000 g/ha: 8.0 kg/ha
Method: as §1, §2

Lamium spp. = test: Herbicidal action (Example 25)
Method: as §1, §2

Solanum nigrum = test: Herbicidal action (Example 25)
Method: as §1, §2

Triticum aestivum = test: Growth height of young cereal plants (Example 11, Table A)
Text: (§3) The vessels used for the experiments were plastic pots having a volume of 1,130 cm^3 (Table A) or paraffined paper cups having a volume of 170 cm^3 (Table B). The pots and cups were filled with a sandy loam. The seeds of the test plants-separated by species-were sown shallow. Preemergence treatment (soil treatment) was effected immediately after sowing and before germination of the seeds. Seeds lying on the surface came into contact with the active ingredients. Postemergence treatment (leaf treatment) took place at an average growth height of the plants (depending on the rate of growth) of from 6 to 10 cm. The substances were suspended, emulsified or dissolved in water as diluent and applied by means of fine nozzles. The vessels were kept in the greenhouse in a temperature range of 12° C. to 25° C., and were regularly sprinkler irrigated for the duration of the experiment. The observation period was 6 to 8 weeks.

Hordeum vulgare = test: as above; details: soil treatment
Text: as §3

Cynodon dactylon = test: Growth-regulating action, postemergence, greenhouse (Example 35, Table 1); details: for growth height relative: control 100
Text: as §3
(§4) Further experiments were carried out in the greenhouse under the condition described in Example 11. […] As the plants which were examined liked the warmth (Eupghorbia geniculate, Arachis hypogaea, Cynodon dactylon), they were kept at from 20°-30° C. Cynodon dactylon from seed was cut once and the young growth treated postemergence.

Arachis hypogaea = test: as above; details: for growth height relative: control 100
Text: as §3, §4

c1csc(N2N=NC3C4CC(C5N=NC45)C32)n1 (stereo not drawn) [drawing 432]
pest or weed control at 2000 g/ha (Galium aparine; post-emergence, postemergence): 10%
pest or weed control at 4000 g/ha (Galium aparine; post-emergence, postemergence): 18%
pest or weed control at 8000 g/ha (Galium aparine; post-emergence, postemergence): 30%
pest or weed control at 2000 g/ha (Galium aparine; pre-emergence, preemergence): 72%
pest or weed control at 4000 g/ha (Galium aparine; pre-emergence, preemergence): 98%
pest or weed control at 8000 g/ha (Galium aparine; pre-emergence, preemergence): 90%
pest or weed control at 2000 g/ha (Poa annua; post-emergence, postemergence): 38%
pest or weed control at 4000 g/ha (Poa annua; post-emergence, postemergence): 52%
pest or weed control at 8000 g/ha (Poa annua; post-emergence, postemergence): 68%
pest or weed control at 2000 g/ha (Poa annua; pre-emergence, preemergence): 80%
pest or weed control at 4000 g/ha (Poa annua; pre-emergence, preemergence): 92%
pest or weed control at 8000 g/ha (Poa annua; pre-emergence, preemergence): 95%
percentage damage (Lamium spp.; postemergence, 2.0 kg/ha): 55 percentage damage
percentage damage (Lamium spp.; postemergence, 4.0 kg/ha): 60 percentage damage
percentage damage (Lamium spp.; postemergence, 8.0 kg/ha): 95 percentage damage
percentage damage (Lamium spp.; preemergence, 2.0 kg/ha): 95 percentage damage
percentage damage (Lamium spp.; preemergence, 4.0 kg/ha): 95 percentage damage
percentage damage (Lamium spp.; preemergence, 8.0 kg/ha): 95 percentage damage
percentage damage (Solanum nigrum; postemergence, 2.0 kg/ha): 90 percentage damage
percentage damage (Solanum nigrum; postemergence, 4.0 kg/ha): 95 percentage damage
percentage damage (Solanum nigrum; postemergence, 8.0 kg/ha): 100 percentage damage
percentage damage (Solanum nigrum; preemergence, 2.0 kg/ha): 95 percentage damage
percentage damage (Solanum nigrum; preemergence, 4.0 kg/ha): 95 percentage damage
percentage damage (Solanum nigrum; preemergence, 8.0 kg/ha): 95 percentage damage

Clc1ccc(CN2N=NC3C4CC(C5N=NC45)C32)cc1 (stereo not drawn)
Growth height (Triticum aestivum; leaf treatment, 0.5 kg/ha): 40 cm
Growth height (Triticum aestivum; leaf treatment, 1.0 kg/ha): 39 cm
Growth height (Triticum aestivum; leaf treatment, 2.0 kg/ha): 40 cm
Growth height (Triticum aestivum; soil treatment, 0.5 kg/ha): 40 cm
Growth height (Triticum aestivum; soil treatment, 1.0 kg/ha): 40 cm
Growth height (Triticum aestivum; soil treatment, 2.0 kg/ha): 30 cm
Growth height (Hordeum vulgare; 0.5 kg/ha): 48 cm
Growth height (Hordeum vulgare; 1.0 kg/ha): 44 cm
Growth height (Hordeum vulgare; 2.0 kg/ha): 41 cm

Brc1ccccc1N1N=NC2C3CC(C4N=NC34)C21 (stereo not drawn) [drawing 365]
Growth height (Triticum aestivum; leaf treatment, 0.5 kg/ha): 35 cm
Growth height (Triticum aestivum; leaf treatment, 1.0 kg/ha): 33 cm
Growth height (Triticum aestivum; leaf treatment, 2.0 kg/ha): 33 cm
Growth height (Triticum aestivum; soil treatment, 0.5 kg/ha): 22 cm
Growth height (Triticum aestivum; soil treatment, 1.0 kg/ha): 12 cm
Growth height (Triticum aestivum; soil treatment, 2.0 kg/ha): 10 cm
Growth height (Hordeum vulgare; 0.5 kg/ha): 40 cm
Growth height (Hordeum vulgare; 1.0 kg/ha): 42 cm
Growth height (Hordeum vulgare; 2.0 kg/ha): 31 cm

CC(C)OC(=O)Nc1cccc(Cl)c1 [drawing 426]
pest or weed control at 2000 g/ha (Galium aparine; post-emergence, postemergence): 0%
pest or weed control at 4000 g/ha (Galium aparine; post-emergence, postemergence): 0%
pest or weed control at 8000 g/ha (Galium aparine; post-emergence, postemergence): 10%
pest or weed control at 2000 g/ha (Galium aparine; pre-emergence, preemergence): 88%
pest or weed control at 4000 g/ha (Galium aparine; pre-emergence, preemergence): 80%
pest or weed control at 8000 g/ha (Galium aparine; pre-emergence, preemergence): 88%
pest or weed control at 2000 g/ha (Poa annua; post-emergence, postemergence): 30%
pest or weed control at 4000 g/ha (Poa annua; post-emergence, postemergence): 30%
pest or weed control at 8000 g/ha (Poa annua; post-emergence, postemergence): 42%
pest or weed control at 2000 g/ha (Poa annua; pre-emergence, preemergence): 100%
pest or weed control at 4000 g/ha (Poa annua; pre-emergence, preemergence): 100%
pest or weed control at 8000 g/ha (Poa annua; pre-emergence, preemergence): 100%
percentage damage (Lamium spp.; postemergence, 2.0 kg/ha): 50 percentage damage
percentage damage (Lamium spp.; postemergence, 4.0 kg/ha): 50 percentage damage
percentage damage (Lamium spp.; postemergence, 8.0 kg/ha): 90 percentage damage
percentage damage (Lamium spp.; preemergence, 2.0 kg/ha): 72 percentage damage
percentage damage (Lamium spp.; preemergence, 4.0 kg/ha): 90 percentage damage
percentage damage (Lamium spp.; preemergence, 8.0 kg/ha): 95 percentage damage
percentage damage (Solanum nigrum; postemergence, 2.0 kg/ha): 22 percentage damage
percentage damage (Solanum nigrum; postemergence, 4.0 kg/ha): 22 percentage damage
percentage damage (Solanum nigrum; postemergence, 8.0 kg/ha): 38 percentage damage
percentage damage (Solanum nigrum; preemergence, 2.0 kg/ha): 85 percentage damage
percentage damage (Solanum nigrum; preemergence, 4.0 kg/ha): 85 percentage damage
percentage damage (Solanum nigrum; preemergence, 8.0 kg/ha): 90 percentage damage

Clc1ccc(N2C3C4CC(C5N=NC45)C32)cc1Cl (stereo not drawn)
Growth height (Cynodon dactylon; 0.5 kg/ha): 7 cm
growth height relative (Cynodon dactylon; 0.5 kg/ha): 64
Growth height (Cynodon dactylon; 1.0 kg/ha): 6 cm
growth height relative (Cynodon dactylon; 1.0 kg/ha): 54
Growth height (Cynodon dactylon; 2.0 kg/ha): 6 cm
growth height relative (Cynodon dactylon; 2.0 kg/ha): 54
Growth height (Arachis hypogaea; 0.5 kg/ha): 14 cm
growth height relative (Arachis hypogaea; 0.5 kg/ha): 87
Growth height (Arachis hypogaea; 1.0 kg/ha): 14 cm
growth height relative (Arachis hypogaea; 1.0 kg/ha): 87
Growth height (Arachis hypogaea; 2.0 kg/ha): 10 cm
growth height relative (Arachis hypogaea; 2.0 kg/ha): 62

Brc1cccc(N2N=NC3C4CC(C5N=NC45)C32)c1 (stereo not drawn) [drawing 366]
Growth height (Triticum aestivum; leaf treatment, 0.5 kg/ha): 33 cm
Growth height (Triticum aestivum; leaf treatment, 1.0 kg/ha): 28 cm
Growth height (Triticum aestivum; leaf treatment, 2.0 kg/ha): 17 cm
Growth height (Triticum aestivum; soil treatment, 0.5 kg/ha): 24 cm
Growth height (Triticum aestivum; soil treatment, 1.0 kg/ha): 20 cm
Growth height (Triticum aestivum; soil treatment, 2.0 kg/ha): 16 cm
Growth height (Hordeum vulgare; 0.5 kg/ha): 38 cm
Growth height (Hordeum vulgare; 1.0 kg/ha): 30 cm
Growth height (Hordeum vulgare; 2.0 kg/ha): 27 cm

Clc1cccc(N2N=NC3C4CC(C5N=NC45)C32)c1 (stereo not drawn) [drawing 364]
Growth height (Triticum aestivum; leaf treatment, 0.25 kg/ha): 29 cm
Growth height (Triticum aestivum; leaf treatment, 0.5 kg/ha): 25 cm
Growth height (Triticum aestivum; leaf treatment, 1.0 kg/ha): 13 cm
Growth height (Triticum aestivum; leaf treatment, 2.0 kg/ha): 12 cm
Growth height (Triticum aestivum; soil treatment, 0.25 kg/ha): 26 cm
Growth height (Triticum aestivum; soil treatment, 0.5 kg/ha): 15 cm
Growth height (Hordeum vulgare; 0.5 kg/ha): 43 cm
Growth height (Hordeum vulgare; 1.0 kg/ha): 40 cm
Growth height (Hordeum vulgare; 2.0 kg/ha): 30 cm
